Results: patent US20110077251A1, “NOVEL 17 BETA LUPANE DERIVATIVES” (priority 2009, published 2011)

Key:
HIVIIIB [1] = test: HIV-1 replication in MT2 cell line without human serum (RT activity in supernatant); format: cell-based; conditions: MT2 cells, day 5 after infection, average if tested more than once, read-out: MT2 (HIVIIIB) IC50 range
Experimental: (§1) HIV-1 Replication in MT2 cell line with and without 30% human serum: The cells are infected at a Multiciplicity of Infection (MOI) of 0.5 for 3 h and then washed twice with complete media to remove residual virus. Cells are then resuspended at 0.5×10^6/ml in complete medium (RPMI, 10% FBS, 1% sodium pyruvate), and seeded into 96-well plates (6.25×10^4/well). The cells are cultured in the presence or absence of various concentrations of test compounds in serial dilutions for 3 days at 37° C. The test compounds are serially diluted in complete medium supplemented or not with 30% human serum. After 3 days, 100 μL of cultured medium with cells are replaced with 120 μL of freshly diluted test compounds in complete medium containing or not 30% Human serum. The level of HIV-1 replication is determined at days 5 after infection by the presence of viral RT activity in harvested supernatant fluid. The IC50 values for the virus replication are determined by using GRAPHPAD PRISM software.
(§2) The IC50 of the compounds tested in accordance with the HIV replication activity assay MT2 (HIVIIIB) with or without human serum are represented in Table 6.

HIVIIIB [2] = test: HIV-1 replication in MT2 cell line with 30% human serum (RT activity in supernatant); format: cell-based; conditions: MT2 cells, day 5 after infection, average if tested more than once, read-out: MT2 (HIVIIIB) with human serum IC50 range
Experimental: as §1, §2

[3] = Human immunodeficiency virus 1, 120 h

In the case of `C=C(C)[C@@H]1CC[C@]2(NC(=O)N3CCOCC3)CC[C@]3(C)[C@H](CC[C@@H]4[C@@]5(C)CC[C@H](OC(=O)CC(C)(C)C(=O)O)C(C)(C)[C@@H]5CC[C@]43C)[C@@H]12` [Cpd 11-8, 3β-O-(3′,3′-Dimethylsuccinyl)-17β-[(morpholine-4-carbonyl)-amino]-28-norlup-20(29)-ene], the IC50 (HIVIIIB [1]; [3]) is reported as < 199 nM and the IC50 (HIVIIIB [2]; [3]) is reported as < 199 nM.

With `C=C(C)[C@@H]1CC[C@]2(NS(C)(=O)=O)CC[C@]3(C)[C@H](CC[C@@H]4[C@@]5(C)CC[C@H](OC(=O)CC(C)(C)C(=O)O)C(C)(C)[C@@H]5CC[C@]43C)[C@@H]12` [Cpd 12-1, 3β-O-(3′,3′-Dimethylsuccinyl)-17β-methylsulfonylamino-28-norlup-20(29)-ene] the IC50 (HIVIIIB [1]; [3]) was < 199 nM and the IC50 (HIVIIIB [2]; [3]) was < 199 nM.

In the case of `C=C(C)[C@@H]1CC[C@]2(NC(=O)NCc3ccccc3)CC[C@]3(C)[C@H](CC[C@@H]4[C@@]5(C)CC[C@H](OC(=O)CC(C)(C)C(=O)O)C(C)(C)[C@@H]5CC[C@]43C)[C@@H]12` [Cpd 11-6, 3β-O-(3′,3′-Dimethylsuccinyl)-17β-[N′-(benzyl)ureido]-28-norlup-20(29)-ene], the IC50 (HIVIIIB [1]; [3]) is reported as < 199 nM and the IC50 (HIVIIIB [2]; [3]) is reported as < 199 nM.

`C=C(C)[C@@H]1CC[C@]2(NC(=O)N3CCN(C)CC3)CC[C@]3(C)[C@H](CC[C@@H]4[C@@]5(C)CC[C@H](OC(=O)CC(C)(C)C(=O)O)C(C)(C)[C@@H]5CC[C@]43C)[C@@H]12` [Cpd 11-9, 3β-O-(3′,3′-Dimethylsuccinyl)-17β-[(4-methyl-piperazine-1-carbonyl)-amino]-28-norlup-20(29)-ene] was tested, and the IC50 (HIVIIIB [1]; [3]) was < 199 nM and the IC50 (HIVIIIB [2]; [3]) was < 199 nM.

`C=C(C)[C@@H]1CC[C@]2(NC(=O)C(=O)N(C)C)CC[C@]3(C)[C@H](CC[C@@H]4[C@@]5(C)CC[C@H](OC(=O)CC(C)(C)C(=O)O)C(C)(C)[C@@H]5CC[C@]43C)[C@@H]12` [Cpd 13-3, 17β-Dimethylaminooxalyl-amino-3β-O-(3′,3′-dimethylsuccinyl)-28-norlup-20(29)-ene] was tested, and the IC50 (HIVIIIB [1]; [3]) was < 199 nM and the IC50 (HIVIIIB [2]; [3]) was < 199 nM.

`CC(=O)NC12CCC(C(C)C)C1C1CCC3C4(C)CCC(OC(=O)CC(C)(C)C(=O)O)C(C)(C)C4CCC3(C)C1(C)CC2` (stereo not drawn) [Cpd 22-1, 3β-O-(3′,3′-Dimethylsuccinyl)-17β-acetylamino-28-norlupane] was tested, and the IC50 (HIVIIIB [1]) was < 199 nM and the IC50 (HIVIIIB [2]) was < 199 nM.

With `C=C(C)[C@@H]1CC[C@]2(NC(C)=O)CC[C@]3(C)[C@H](CC[C@@H]4[C@@]5(C)CC[C@H](OC(=O)CC(C)(C)C(=O)O)C(C)(C)[C@@H]5CC[C@]43C)[C@@H]12` [Cpd 13-1, 17β-Acetylamino-3β-O-(3′,3′-dimethylsuccinyl)-28-norlup-20(29)-ene] the IC50 (HIVIIIB [1]; [3]) was < 199 nM and the IC50 (HIVIIIB [2]; [3]) was < 199 nM.

In the case of `C=C(C)[C@@H]1CC[C@]2(NC(N)=O)CC[C@]3(C)[C@H](CC[C@@H]4[C@@]5(C)CC[C@H](OC(=O)CC(C)(C)C(=O)O)C(C)(C)[C@@H]5CC[C@]43C)[C@@H]12` [Cpd 11-10, 3β-O-(3′,3′-Dimethylsuccinyl)-17β-ureido-28-norlup-20(29)-ene], the IC50 (HIVIIIB [1]; [3]) is reported as < 199 nM and the IC50 (HIVIIIB [2]; [3]) is reported as < 199 nM.

`C=C(C)[C@@H]1CC[C@]2(NC(=O)c3ccncc3)CC[C@]3(C)[C@H](CC[C@@H]4[C@@]5(C)CC[C@H](OC(=O)CC(C)(C)C(=O)O)C(C)(C)[C@@H]5CC[C@]43C)[C@@H]12` [Cpd 13-8, 3β-O-(3′,3′-Dimethylsuccinyl)-17β-(pyridin-4-ylcarbonyl)-amino-28-norlup-20(29)-ene] was tested, and the IC50 (HIVIIIB [1]; [3]) was < 199 nM and the IC50 (HIVIIIB [2]; [3]) was 200 to 999 nM.

For `C=C(C)[C@@H]1CC[C@]2(NC(=O)Cc3ccccc3)CC[C@]3(C)[C@H](CC[C@@H]4[C@@]5(C)CC[C@H](OC(=O)CC(C)(C)C(=O)O)C(C)(C)[C@@H]5CC[C@]43C)[C@@H]12` [Cpd 13-6, 3β-O-(3′,3′-Dimethylsuccinyl)-17β-phenylacetylamino-28-norlup-20(29)-ene], the IC50 (HIVIIIB [1]; [3]) was < 199 nM and the IC50 (HIVIIIB [2]; [3]) was < 199 nM.

`C=C(C)[C@@H]1CC[C@]2(NC(=O)NC)CC[C@]3(C)[C@H](CC[C@@H]4[C@@]5(C)CC[C@H](OC(=O)CC(C)(C)C(=O)O)C(C)(C)[C@@H]5CC[C@]43C)[C@@H]12` [Cpd 11-7, 3β-O-(3′,3′-Dimethylsuccinyl)-17β-[N′-(methyl)ureido]-28-norlup-20(29)-ene] was tested, and the IC50 (HIVIIIB [1]; [3]) was < 199 nM and the IC50 (HIVIIIB [2]; [3]) was < 199 nM.

In the case of `C=C(C)[C@@H]1CC[C@]2(NC(=O)OC(C)(C)C)CC[C@]3(C)[C@H](CC[C@@H]4[C@@]5(C)CC[C@H](OC(=O)CC(C)(C)C(=O)O)C(C)(C)[C@@H]5CC[C@]43C)[C@@H]12` [Cpd 8-1, 3β-O-(3′,3′-Dimethylsuccinyl)-17β-tert-butyloxycarbonylamino-28-norlup-20(29)-ene], the IC50 (HIVIIIB [1]; [3]) is reported as < 199 nM.

In the case of `C=C(C)[C@@H]1CC[C@]2(NC(=O)NC(=O)OC)CC[C@]3(C)[C@H](CC[C@@H]4[C@@]5(C)CC[C@H](OC(=O)CC(C)(C)C(=O)O)C(C)(C)[C@@H]5CC[C@]43C)[C@@H]12` [Cpd 11-1, 3β-O-(3′,3′-Dimethylsuccinyl)-17β-[N′-(methoxycarbonyl)ureido]-28-norlup-20(29)-ene], the IC50 (HIVIIIB [1]; [3]) is reported as < 199 nM and the IC50 (HIVIIIB [2]; [3]) is reported as < 199 nM.

For `C=C(C)[C@@H]1CC[C@]2(NC(=O)N[C@@H](C(=O)O)C(C)C)CC[C@]3(C)[C@H](CC[C@@H]4[C@@]5(C)CC[C@H](OC(=O)CC(C)(C)C(=O)O)C(C)(C)[C@@H]5CC[C@]43C)[C@@H]12` [Cpd 11-4, 3β-O-(3′,3′-Dimethylsuccinyl)-28-norlup-20(29)-ene-17β-yl-N-carbamoyl-L-valine], the IC50 (HIVIIIB [1]; [3]) was < 199 nM.

In the case of `C=C(C)[C@@H]1CC[C@]2(NC(=O)NC(C)(C)C)CC[C@]3(C)[C@H](CC[C@@H]4[C@@]5(C)CC[C@H](OC(=O)CC(C)(C)C(=O)O)C(C)(C)[C@@H]5CC[C@]43C)[C@@H]12` [Cpd 11-2, 3β-O-(3′,3′-Dimethylsuccinyl)-17β-[N′-(tert-butyl)ureido]-28-norlup-20(29)-ene], the IC50 (HIVIIIB [1]; [3]) is reported as < 199 nM and the IC50 (HIVIIIB [2]; [3]) is reported as < 199 nM.

In the case of `C=C(C)[C@@H]1CC[C@]2(NC(=O)OC)CC[C@]3(C)[C@H](CC[C@@H]4[C@@]5(C)CC[C@H](OC(=O)CC(C)(C)C(=O)O)C(C)(C)[C@@H]5CC[C@]43C)[C@@H]12` [Cpd 14-1, 3β-O-(3′,3′-Dimethylsuccinyl)-17β-methoxycarbonylamino-28-norlup-20(29)-ene], the IC50 (HIVIIIB [1]; [3]) is reported as < 199 nM and the IC50 (HIVIIIB [2]; [3]) is reported as < 199 nM.

For `C=C(C)[C@@H]1CC[C@]2(NC(=O)N[C@@H](C(=O)O)C(C)C)CC[C@]3(C)[C@H](CC[C@@H]4[C@@]5(C)CC[C@H](OC(=O)CC(C)(C)CC(=O)O)C(C)(C)[C@@H]5CC[C@]43C)[C@@H]12` [Cpd 11-5, 3β-O-(3′,3′-Dimethylglutaryl)-28-norlup-20(29)-ene-17β-yl-N-carbamoyl-L-valine], the IC50 (HIVIIIB [1]; [3]) was < 199 nM.

With `C=C(C)[C@@H]1CC[C@]2(NC(=O)CCN3CCCC3)CC[C@]3(C)[C@H](CC[C@@H]4[C@@]5(C)CC[C@H](OC(=O)CC(C)(C)C(=O)O)C(C)(C)[C@@H]5CC[C@]43C)[C@@H]12` [Cpd 13-11, 3β-O-(3′,3′-Dimethylsuccinyl)-17β-(3-pyrrolidin-1-yl-propionylamino)-28-norlup-20(29)-ene] the IC50 (HIVIIIB [1]; [3]) was < 199 nM and the IC50 (HIVIIIB [2]; [3]) was < 199 nM.

With `C=C(C)[C@@H]1CC[C@]2(NC(=O)C(C)C)CC[C@]3(C)[C@H](CC[C@@H]4[C@@]5(C)CC[C@H](OC(=O)CC(C)(C)C(=O)O)C(C)(C)[C@@H]5CC[C@]43C)[C@@H]12` [Cpd 13-10, 3β-O-(3′,3′-Dimethylsuccinyl)-17β-isobutyrylamino-28-norlup-20(29)-ene] the IC50 (HIVIIIB [1]; [3]) was < 199 nM and the IC50 (HIVIIIB [2]; [3]) was < 199 nM.

With `C=C(C)[C@@H]1CC[C@]2(NC(=O)C3CC3)CC[C@]3(C)[C@H](CC[C@@H]4[C@@]5(C)CC[C@H](OC(=O)CC(C)(C)C(=O)O)C(C)(C)[C@@H]5CC[C@]43C)[C@@H]12` [Cpd 13-9, 17β-(Cyclopropanecarbonyl-amino)-3β-O-(3′,3′-dimethylsuccinyl)-28-norlup-20(29)-ene] the IC50 (HIVIIIB [1]; [3]) was < 199 nM and the IC50 (HIVIIIB [2]; [3]) was < 199 nM.
